Assays:
Assay in all cases: KINOMEscan competition binding
Settings in all cases: compound 1.0 µM
NEK3 (human) = NEK3 (human) (UniProt P51956)
[1] = tested on: ABL1 (human), P00519 [E255K]
SRPK2 (human) = SRPK2 (human) (UniProt P78362)
STK32B (human) = STK32B (human) (UniProt Q9NY57)
EIF2AK1 (human) = EIF2AK1 (human) (UniProt Q9BQI3)
CDC42BPG (human) = CDC42BPG (human) (UniProt Q6DT37)
CSK (human) = CSK (human) (UniProt P41240)
PKN3 (M.tuberculosis) = PKN3 (M.tuberculosis) (UniProt Q6P5Z2)
PI4KB (human) = PI4KB (human) (UniProt Q9UBF8)
NEK6 (human) = NEK6 (human) (UniProt Q9HC98)
Sequence of NEK6 (human) (Q9HC98 whole entry, looked up): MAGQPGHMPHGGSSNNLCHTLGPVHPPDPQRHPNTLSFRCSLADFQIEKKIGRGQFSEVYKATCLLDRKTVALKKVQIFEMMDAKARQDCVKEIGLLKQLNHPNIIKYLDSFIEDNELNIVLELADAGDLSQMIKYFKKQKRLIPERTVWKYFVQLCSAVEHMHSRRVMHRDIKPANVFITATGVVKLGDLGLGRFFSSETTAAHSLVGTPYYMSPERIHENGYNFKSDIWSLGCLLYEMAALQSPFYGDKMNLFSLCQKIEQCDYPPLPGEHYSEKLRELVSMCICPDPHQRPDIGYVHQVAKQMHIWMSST

NEK11 (human) = NEK11 (human) (UniProt Q8NG66)
CAMK2B (human) = CAMK2B (human) (UniProt Q13554)
PIM2 (human) = PIM2 (human) (UniProt Q9P1W9)
Sequence of PIM2 (human) (Q9P1W9 whole entry, looked up): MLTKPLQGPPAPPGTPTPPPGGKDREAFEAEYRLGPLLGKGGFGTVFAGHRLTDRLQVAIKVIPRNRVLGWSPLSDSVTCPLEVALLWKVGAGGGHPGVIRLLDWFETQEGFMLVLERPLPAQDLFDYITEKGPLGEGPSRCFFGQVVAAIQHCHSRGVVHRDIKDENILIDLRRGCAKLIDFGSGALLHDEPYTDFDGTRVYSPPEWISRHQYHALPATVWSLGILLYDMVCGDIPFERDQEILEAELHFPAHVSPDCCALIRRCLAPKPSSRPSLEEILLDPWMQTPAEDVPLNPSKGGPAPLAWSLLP

ACVR2A (human) = ACVR2A (human) (UniProt P27037)
FLT1 (human) = FLT1 (human) (UniProt P17948)
Sequence of FLT1 (human) (P17948 whole entry, looked up): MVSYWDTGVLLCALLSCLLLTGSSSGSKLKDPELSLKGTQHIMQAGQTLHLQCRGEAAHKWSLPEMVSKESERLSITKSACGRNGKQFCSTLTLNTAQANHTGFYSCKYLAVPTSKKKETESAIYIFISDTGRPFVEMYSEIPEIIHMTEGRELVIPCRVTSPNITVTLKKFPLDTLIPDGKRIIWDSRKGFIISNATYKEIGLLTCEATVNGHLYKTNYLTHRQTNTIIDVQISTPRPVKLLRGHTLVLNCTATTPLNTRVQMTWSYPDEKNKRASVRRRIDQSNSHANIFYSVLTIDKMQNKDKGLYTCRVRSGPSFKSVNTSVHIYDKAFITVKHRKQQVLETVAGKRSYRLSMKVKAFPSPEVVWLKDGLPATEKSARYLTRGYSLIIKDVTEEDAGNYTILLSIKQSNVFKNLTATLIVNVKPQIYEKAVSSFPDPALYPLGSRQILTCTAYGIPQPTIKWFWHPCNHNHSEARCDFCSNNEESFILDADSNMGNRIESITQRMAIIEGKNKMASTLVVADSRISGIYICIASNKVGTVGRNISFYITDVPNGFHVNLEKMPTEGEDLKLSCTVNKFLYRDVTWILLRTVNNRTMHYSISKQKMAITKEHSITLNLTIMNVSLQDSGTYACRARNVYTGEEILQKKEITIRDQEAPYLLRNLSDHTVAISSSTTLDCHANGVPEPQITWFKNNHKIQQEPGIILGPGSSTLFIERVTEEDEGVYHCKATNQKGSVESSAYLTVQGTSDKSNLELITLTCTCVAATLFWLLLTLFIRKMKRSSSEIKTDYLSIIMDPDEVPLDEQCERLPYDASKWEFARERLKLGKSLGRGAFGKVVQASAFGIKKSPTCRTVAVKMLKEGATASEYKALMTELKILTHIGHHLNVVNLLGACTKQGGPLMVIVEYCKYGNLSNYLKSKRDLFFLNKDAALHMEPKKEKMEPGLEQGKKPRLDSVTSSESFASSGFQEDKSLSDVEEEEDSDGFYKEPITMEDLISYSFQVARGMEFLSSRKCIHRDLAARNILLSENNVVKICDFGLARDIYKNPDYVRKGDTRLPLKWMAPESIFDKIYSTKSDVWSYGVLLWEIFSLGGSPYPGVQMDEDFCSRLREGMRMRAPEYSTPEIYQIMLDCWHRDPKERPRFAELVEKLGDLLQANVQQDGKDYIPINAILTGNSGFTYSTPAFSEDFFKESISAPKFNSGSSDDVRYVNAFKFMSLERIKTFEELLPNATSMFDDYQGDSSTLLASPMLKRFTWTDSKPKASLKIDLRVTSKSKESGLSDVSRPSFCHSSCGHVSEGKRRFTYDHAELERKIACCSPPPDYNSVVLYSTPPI

BUB1 (human) = BUB1 (human) (UniProt O43683)
LIMK1 (human) = LIMK1 (human) (UniProt P53667)
RPS6KA1 KD2 (human) = RPS6KA1 KD2 (human) (UniProt Q15418)
FLT4 (human) = FLT4 (human) (UniProt P35916)
RIPK4 (human) = RIPK4 (human) (UniProt P57078)
SRMS (human) = SRMS (human) (UniProt Q9H3Y6)
TRPM6 (human) = TRPM6 (human) (UniProt Q9BX84)
STK38 (human) = STK38 (human) (UniProt Q15208)
RPS6KA5 KD1 (human) = RPS6KA5 KD1 (human) (UniProt O75582)
CDK16 (human) = CDK16 (human) (UniProt Q00536)
Sequence of CDK16 (human) (Q00536 whole entry, looked up): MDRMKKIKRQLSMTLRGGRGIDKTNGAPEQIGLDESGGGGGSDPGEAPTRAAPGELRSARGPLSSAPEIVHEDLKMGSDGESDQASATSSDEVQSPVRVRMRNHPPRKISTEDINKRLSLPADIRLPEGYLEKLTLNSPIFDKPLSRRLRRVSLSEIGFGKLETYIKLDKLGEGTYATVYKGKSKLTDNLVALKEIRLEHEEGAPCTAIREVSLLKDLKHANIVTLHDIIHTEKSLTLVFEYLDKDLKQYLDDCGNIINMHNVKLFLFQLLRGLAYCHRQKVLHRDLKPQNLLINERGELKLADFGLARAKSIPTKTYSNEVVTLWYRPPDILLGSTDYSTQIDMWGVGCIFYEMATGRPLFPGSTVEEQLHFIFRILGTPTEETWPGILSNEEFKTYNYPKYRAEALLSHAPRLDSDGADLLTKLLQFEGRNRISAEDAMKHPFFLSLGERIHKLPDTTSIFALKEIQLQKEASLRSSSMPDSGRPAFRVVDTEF

[2] = tested on: EGFR (human), P00533 [747-751 del / S ins]
Sequence of EGFR (human), P00533 [747-751 del / S ins] (P00533 whole entry, looked up, stated change not applied): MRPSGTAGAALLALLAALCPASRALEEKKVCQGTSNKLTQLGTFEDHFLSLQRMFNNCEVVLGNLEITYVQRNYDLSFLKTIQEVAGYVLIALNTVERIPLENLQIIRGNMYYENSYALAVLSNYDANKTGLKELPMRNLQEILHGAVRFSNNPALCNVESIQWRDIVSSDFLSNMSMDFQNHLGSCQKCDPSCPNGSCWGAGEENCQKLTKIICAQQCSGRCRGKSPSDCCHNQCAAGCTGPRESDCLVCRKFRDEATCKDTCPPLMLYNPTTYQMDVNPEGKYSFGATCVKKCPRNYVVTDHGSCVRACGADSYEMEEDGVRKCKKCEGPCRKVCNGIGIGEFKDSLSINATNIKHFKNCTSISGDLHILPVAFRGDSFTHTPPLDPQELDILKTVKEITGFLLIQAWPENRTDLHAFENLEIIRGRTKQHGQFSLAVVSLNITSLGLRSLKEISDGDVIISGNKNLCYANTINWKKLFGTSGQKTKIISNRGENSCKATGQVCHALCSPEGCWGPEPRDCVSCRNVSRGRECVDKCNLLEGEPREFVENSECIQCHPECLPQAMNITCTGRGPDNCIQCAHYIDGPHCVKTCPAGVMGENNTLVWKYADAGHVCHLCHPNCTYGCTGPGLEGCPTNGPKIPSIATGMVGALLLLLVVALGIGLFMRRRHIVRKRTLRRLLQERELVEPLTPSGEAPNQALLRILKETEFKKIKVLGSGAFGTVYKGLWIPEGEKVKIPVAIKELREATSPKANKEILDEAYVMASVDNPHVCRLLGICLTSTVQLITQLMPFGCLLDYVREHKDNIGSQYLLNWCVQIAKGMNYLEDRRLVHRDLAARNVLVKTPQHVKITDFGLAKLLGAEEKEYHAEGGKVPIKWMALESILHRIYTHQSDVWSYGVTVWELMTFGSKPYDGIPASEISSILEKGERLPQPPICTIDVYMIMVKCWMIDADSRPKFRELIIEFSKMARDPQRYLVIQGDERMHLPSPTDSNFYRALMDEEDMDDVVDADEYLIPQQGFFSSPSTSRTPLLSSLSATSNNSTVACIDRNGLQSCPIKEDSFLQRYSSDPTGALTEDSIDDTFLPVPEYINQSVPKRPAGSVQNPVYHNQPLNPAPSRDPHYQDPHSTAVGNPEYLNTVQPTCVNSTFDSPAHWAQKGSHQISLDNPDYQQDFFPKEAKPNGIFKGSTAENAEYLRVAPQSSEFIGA

NEK2 (human) = NEK2 (human) (UniProt P51955)
SNRK (human) = SNRK (human) (UniProt Q9NRH2)
Sequence of SNRK (human) (Q9NRH2 whole entry, looked up): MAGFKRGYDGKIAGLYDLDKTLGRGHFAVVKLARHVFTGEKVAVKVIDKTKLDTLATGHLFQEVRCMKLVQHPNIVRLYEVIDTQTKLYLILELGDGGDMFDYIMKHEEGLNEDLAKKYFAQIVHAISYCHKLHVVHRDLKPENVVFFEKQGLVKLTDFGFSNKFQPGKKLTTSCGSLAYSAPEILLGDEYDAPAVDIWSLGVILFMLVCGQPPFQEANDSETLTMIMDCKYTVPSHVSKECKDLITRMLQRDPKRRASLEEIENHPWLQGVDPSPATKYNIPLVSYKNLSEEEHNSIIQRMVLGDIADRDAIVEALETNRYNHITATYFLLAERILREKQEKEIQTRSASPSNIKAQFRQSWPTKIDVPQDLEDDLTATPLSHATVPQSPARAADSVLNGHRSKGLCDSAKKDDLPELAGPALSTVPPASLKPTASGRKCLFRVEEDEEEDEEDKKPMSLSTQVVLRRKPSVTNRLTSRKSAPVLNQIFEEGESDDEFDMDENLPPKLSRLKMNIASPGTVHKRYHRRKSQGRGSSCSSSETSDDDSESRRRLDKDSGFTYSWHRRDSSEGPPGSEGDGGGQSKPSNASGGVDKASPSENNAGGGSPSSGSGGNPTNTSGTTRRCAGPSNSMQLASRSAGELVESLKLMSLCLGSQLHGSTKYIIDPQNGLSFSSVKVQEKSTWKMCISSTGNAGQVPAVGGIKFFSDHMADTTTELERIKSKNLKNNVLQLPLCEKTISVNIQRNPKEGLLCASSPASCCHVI

PDPK1 (human) = PDPK1 (human) (UniProt O15530)
Sequence of PDPK1 (human) (O15530 whole entry, looked up): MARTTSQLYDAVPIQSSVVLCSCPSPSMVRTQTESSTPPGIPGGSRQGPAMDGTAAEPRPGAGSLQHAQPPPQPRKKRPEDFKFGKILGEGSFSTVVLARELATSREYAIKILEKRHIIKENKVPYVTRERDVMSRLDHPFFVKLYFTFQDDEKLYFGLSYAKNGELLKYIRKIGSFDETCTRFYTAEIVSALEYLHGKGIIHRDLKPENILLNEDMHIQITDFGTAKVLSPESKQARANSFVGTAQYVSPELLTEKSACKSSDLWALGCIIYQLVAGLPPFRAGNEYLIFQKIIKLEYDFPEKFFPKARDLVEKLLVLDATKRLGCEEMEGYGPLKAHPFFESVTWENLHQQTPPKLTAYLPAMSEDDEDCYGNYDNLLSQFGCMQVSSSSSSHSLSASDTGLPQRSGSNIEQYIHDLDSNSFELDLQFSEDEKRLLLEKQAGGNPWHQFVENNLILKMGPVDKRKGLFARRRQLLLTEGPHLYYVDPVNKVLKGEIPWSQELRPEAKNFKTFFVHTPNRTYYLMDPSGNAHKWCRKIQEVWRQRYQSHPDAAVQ

MKNK2 (human) = MKNK2 (human) (UniProt Q9HBH9)
NLK (human) = NLK (human) (UniProt Q9UBE8)
DAPK2 (human) = DAPK2 (human) (UniProt Q9UIK4)
TTK (human) = TTK (human) (UniProt P33981)
MAPK12 (human) = MAPK12 (human) (UniProt P53778)
MARK1 (human) = MARK1 (human) (UniProt Q9P0L2)
HIPK3 (human) = HIPK3 (human) (UniProt Q9H422)
WNK3 (human) = WNK3 (human) (UniProt Q9BYP7)
BTK (human) = BTK (human) (UniProt Q06187)
IRAK3 (human) = IRAK3 (human) (UniProt Q9Y616)

Compound: CNc1nc(Nc2ccc(C(=O)N3CCOCC3)cc2OC)ncc1Cl
- kinase still bound, per cent of control (NEK3 (human)): 100%
- kinase still bound, per cent of control [1]: 52%
- kinase still bound, per cent of control (SRPK2 (human)): 84%
- kinase still bound, per cent of control (STK32B (human)): 99%
- kinase still bound, per cent of control (EIF2AK1 (human)): 100%
- kinase still bound, per cent of control (CDC42BPG (human)): 100%
- kinase still bound, per cent of control (CSK (human)): 100%
- kinase still bound, per cent of control (PKN3 (M.tuberculosis)): 85%
- kinase still bound, per cent of control (PI4KB (human)): 100%
- kinase still bound, per cent of control (NEK6 (human)): 100%
- kinase still bound, per cent of control (NEK11 (human)): 100%
- kinase still bound, per cent of control (CAMK2B (human)): 89%
- kinase still bound, per cent of control (PIM2 (human)): 100%
- kinase still bound, per cent of control (ACVR2A (human)): 75%
- kinase still bound, per cent of control (FLT1 (human)): 100%
- kinase still bound, per cent of control (BUB1 (human)): 100%
- kinase still bound, per cent of control (LIMK1 (human)): 91%
- kinase still bound, per cent of control (RPS6KA1 KD2 (human)): 88%
- kinase still bound, per cent of control (FLT4 (human)): 93%
- kinase still bound, per cent of control (RIPK4 (human)): 100%
- kinase still bound, per cent of control (SRMS (human)): 100%
- kinase still bound, per cent of control (TRPM6 (human)): 87%
- kinase still bound, per cent of control (STK38 (human)): 100%
- kinase still bound, per cent of control (RPS6KA5 KD1 (human)): 100%
- residual activity (CDK16 (human)): 100%
- kinase still bound, per cent of control [2]: 100%
- kinase still bound, per cent of control (NEK2 (human)): 78%
- kinase still bound, per cent of control (SNRK (human)): 100%
- kinase still bound, per cent of control (PDPK1 (human)): 95%
- kinase still bound, per cent of control (MKNK2 (human)): 14%
- kinase still bound, per cent of control (NLK (human)): 100%
- kinase still bound, per cent of control (DAPK2 (human)): 66%
- kinase still bound, per cent of control (TTK (human)): 20%
- kinase still bound, per cent of control (MAPK12 (human)): 100%
- kinase still bound, per cent of control (MARK1 (human)): 45%
- kinase still bound, per cent of control (HIPK3 (human)): 47%
- kinase still bound, per cent of control (WNK3 (human)): 93%
- kinase still bound, per cent of control (BTK (human)): 100%
- kinase still bound, per cent of control (IRAK3 (human)): 88%

Reference: the kinase profiling compilation of Christmann-Franck et al. (2016)
